The values below are quoted from earlier work in patent US6943197B2, “Topical administration of pharmacologically active bases in the treatment of inflammatory dermatoses” (priority 2002, dated 2005).

For data set [1] the following is noted: for pH of Aqueous Solution (alkalinity in words): no concentration, result in words.
For data set [2] the following is noted: forms Ca(OH)2.

Like-named read-outs stand apart in the source and are kept apart here.

Take `O=C([O-])[O-].[Na+].[Na+]` [Sodium carbonate anhydrous]: in data set [1] (concentration not given), the “pH of Aqueous Solution” value is listed as “˜11.6”. `O.O.O.O.O.O.O.O.O.O.O.O.O=P([O-])([O-])O.[Na+].[Na+]` [Sodium phosphate, dibasic, dodecahydrate]: in data set [1] (concentration not given), the “pH of Aqueous Solution” value was “˜9.5”. On to `O.O.O=P([O-])([O-])O.[Na+].[Na+]` [Sodium phosphate, dibasic, dihydrate], for which, in data set [1] (concentration not given), the “pH of Aqueous Solution” value was “˜9.5”.

For `O.O.O.O.O.O.O.O.O.O.O.O.O=P([O-])([O-])[O-].[Na+].[Na+].[Na+]` [Sodium phosphate, tribasic dodecahydrate], in data set [1] (1.0% (1%)), the “pH of Aqueous Solution” value is reported as 11.9 (1.0%). With `O=P([O-])([O-])O.[K+].[K+]` [Potassium phosphate, dibasic], in data set [1], the “pH of Aqueous Solution (alkalinity in words)” value was “Aqueous solution is slightly”.

As to `O.O.O.O.O.O.O.O=P([O-])([O-])O.[Na+].[Na+]` [Sodium phosphate, dibasic, heptahydrate], the “pH of Aqueous Solution” value in data set [1] (concentration not given) is on record as “˜9.5”. As for `[O]=[Ca]` [Calcium oxide], in data set [2], the Solubility in water entry is listed as “Soluble in water, Form”. Take `[O]=[Mg]` [Magnesium oxide]: the “pH of Aqueous Solution” value in data set [1] (saturated solution in water) is listed as 10.3. On to `CC(=O)[O-].O.O.O.[Na+]` [Sodium acetate, tribydrate], for which the “pH of Aqueous Solution” value in data set [1] (0.1 N) was 8.9 (0.1 N).

Consider `O=P([O-])([O-])O.[Na+].[Na+]` [Sodium phosphate, dibasic], for which, in data set [1] (concentration not given), the “pH of Aqueous Solution” value was “˜9.5”. On to `CC(=O)[O-].[Na+]` [Sodium acetate, anhydrous], for which the “pH of Aqueous Solution” value in data set [1] (0.1 N) is on record as “˜8.9 (0.1 N)”. For `N.N.O=P(O)(O)O` [Ammonium phosphate, dibasic], in data set [1] (concentration not given), the “pH of Aqueous Solution” value is “˜8”.

Take `O=C([O-])CC(O)(CC(=O)[O-])C(=O)[O-].[K+].[K+].[K+]` [Potassium citrate]: the “pH of Aqueous Solution” value in data set [1] (concentration not given) is recorded as “˜8.5”. Take `O=B[O-].[Na+]` [Sodium metaborate]: the “pH of Aqueous Solution (alkalinity in words)” value in data set [1] was “Strongly alkaline”.
